# Source: US20220323383A1, “SMALL-MOLECULAR ADJUVANTS AND IMPLEMENTATIONS THEREOF” (JAWAHARLAL NEHRU CENTRE FOR ADVANCED SCIENTIFIC RESEARCH, priority 2019, published 2022)
# Where a name gives a salt, the structure may show the parent alone.
# Assays:
# Assay type in all cases: cell-based
# P. aeruginosa R590 [1] = test: Chequerboard combination efficacy of adjuvant with antibiotics; conditions: P. aeruginosa R590
# Outline: (§1)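 Two-fold chequerboard broth microdilution of adjuvant plus antibiotic; 6 h cultures in peptone diluted to ~10^5 cfu/mL, incubated 24 h at 37 °C, 150 rpm, OD600 read. Wells matching media control define inhibitory concentrations; FIC index (FICantibiotic+FICadjuvant) and potentiation factor (MIC alone/MIC with adjuvant) calculated.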
# K. pneumoniae R3934 [2] = test: as above
# Outline: as §1
# A. baumannii R674 [3] = test: as above
# Outline: as §1
# E. coli R3336 [4] = test: as above
# Outline: as §1
# P. aeruginosa R590 [5] = test: Individual antibacterial activity (MIC) of adjuvants; conditions: Pseudomonas aeruginosa, R590, read-out: MIC against clinical isolates of bacteria
# Outline: (§2)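 Broth microdilution used 6-h peptone cultures diluted to about 10^5 cfu/mL, with two-fold serial dilutions of adjuvant alone. Plates were incubated at 37 °C with shaking at 150 rpm. MIC was taken as the lowest concentration giving OD600 equal to the media control at 24 h.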
# K. pneumoniae R3934 [6] = test: as above; conditions: Klebsiella pneumoniae, R3934, read-out: MIC against clinical isolates of bacteria
# Outline: as §2
# A. baumannii R674 [7] = test: as above; conditions: Acinetobacter baumannii, R674, read-out: MIC against clinical isolates of bacteria
# Outline: as §2
# E. coli R3336 [8] = test: as above; conditions: Escherichia coli, R3336, read-out: MIC against clinical isolates of bacteria
# Outline: as §2
smiles,measurement,setting,value
"NCCCC[C@H](N)C(=O)NCCCCCCN(CCCCCCNC(=O)[C@@H](N)CCCCN)C(=O)CC(c1ccccc1)c1ccccc1 [Compound 14, N,N-bis-[(6-(^LLys)amido)hexyl] 3,3-diphenyl propanamide tetrakis trifluoroacetate]",FICI,P. aeruginosa R590 [1]; antibiotic Chloramphenicol,<0.3125
same,MIC of antibiotic in presence of adjuvant,P. aeruginosa R590 [1]; antibiotic Chloramphenicol,32 µg/mL
same,Potentiation factor,P. aeruginosa R590 [1]; antibiotic Chloramphenicol,4
same,FICI,P. aeruginosa R590 [1]; antibiotic Colistin,<0.266
same,MIC of antibiotic in presence of adjuvant,P. aeruginosa R590 [1]; antibiotic Colistin,0.25 µg/mL
same,Potentiation factor,P. aeruginosa R590 [1]; antibiotic Colistin,4
same,MIC of antibiotic in presence of adjuvant,P. aeruginosa R590 [1]; antibiotic Daptomycin,No potentiation
same,FICI,P. aeruginosa R590 [1]; antibiotic Fusidic acid,<0.012
same,MIC of antibiotic in presence of adjuvant,P. aeruginosa R590 [1]; antibiotic Fusidic acid,<0.25 µg/mL
same,Potentiation factor,P. aeruginosa R590 [1]; antibiotic Fusidic acid,>256
same,FICI,P. aeruginosa R590 [1]; antibiotic Linezolid,<0.156
same,MIC of antibiotic in presence of adjuvant,P. aeruginosa R590 [1]; antibiotic Linezolid,32 µg/mL
same,Potentiation factor,P. aeruginosa R590 [1]; antibiotic Linezolid,8
same,FICI,P. aeruginosa R590 [1]; antibiotic Minocycline,<0.156
same,MIC of antibiotic in presence of adjuvant,P. aeruginosa R590 [1]; antibiotic Minocycline,1 µg/mL
same,Potentiation factor,P. aeruginosa R590 [1]; antibiotic Minocycline,8
same,FICI,P. aeruginosa R590 [1]; antibiotic Rifampicin,<0.016
same,MIC of antibiotic in presence of adjuvant,P. aeruginosa R590 [1]; antibiotic Rifampicin,<0.125 µg/mL
same,Potentiation factor,P. aeruginosa R590 [1]; antibiotic Rifampicin,>1024
same,FICI,P. aeruginosa R590 [1]; antibiotic Tetracycline,<0.1875
same,MIC of antibiotic in presence of adjuvant,P. aeruginosa R590 [1]; antibiotic Tetracycline,16 µg/mL
same,Potentiation factor,P. aeruginosa R590 [1]; antibiotic Tetracycline,16
same,FICI,K. pneumoniae R3934 [2]; antibiotic Fusidic acid,<0.1289
same,MIC of antibiotic in presence of adjuvant,K. pneumoniae R3934 [2]; antibiotic Fusidic acid,2 µg/mL
same,Potentiation factor,K. pneumoniae R3934 [2]; antibiotic Fusidic acid,256
same,FICI,K. pneumoniae R3934 [2]; antibiotic Linezolid,<0.1328
same,MIC of antibiotic in presence of adjuvant,K. pneumoniae R3934 [2]; antibiotic Linezolid,64 µg/mL
same,Potentiation factor,K. pneumoniae R3934 [2]; antibiotic Linezolid,>8
same,FICI,K. pneumoniae R3934 [2]; antibiotic Minocycline,<0.1328
same,MIC of antibiotic in presence of adjuvant,K. pneumoniae R3934 [2]; antibiotic Minocycline,0.5 µg/mL
same,Potentiation factor,K. pneumoniae R3934 [2]; antibiotic Minocycline,128
same,FICI,K. pneumoniae R3934 [2]; antibiotic Rifampicin,<0.126
same,MIC of antibiotic in presence of adjuvant,K. pneumoniae R3934 [2]; antibiotic Rifampicin,0.5 µg/mL
same,Potentiation factor,K. pneumoniae R3934 [2]; antibiotic Rifampicin,1024
same,MIC of antibiotic in presence of adjuvant,A. baumannii R674 [3]; antibiotic Ampicillin,No potentiation
same,FICI,A. baumannii R674 [3]; antibiotic Ciprofloxacin,<0.281
same,MIC of antibiotic in presence of adjuvant,A. baumannii R674 [3]; antibiotic Ciprofloxacin,64 µg/mL
same,Potentiation factor,A. baumannii R674 [3]; antibiotic Ciprofloxacin,4
same,FICI,A. baumannii R674 [3]; antibiotic Erythromycin,<0.0625
same,MIC of antibiotic in presence of adjuvant,A. baumannii R674 [3]; antibiotic Erythromycin,16 µg/mL
same,Potentiation factor,A. baumannii R674 [3]; antibiotic Erythromycin,32
same,FICI,A. baumannii R674 [3]; antibiotic Fusidic acid,<0.012
same,MIC of antibiotic in presence of adjuvant,A. baumannii R674 [3]; antibiotic Fusidic acid,<0.5 µg/mL
same,Potentiation factor,A. baumannii R674 [3]; antibiotic Fusidic acid,>128
same,FICI,A. baumannii R674 [3]; antibiotic Linezolid,<0.156
same,MIC of antibiotic in presence of adjuvant,A. baumannii R674 [3]; antibiotic Linezolid,32 µg/mL
same,Potentiation factor,A. baumannii R674 [3]; antibiotic Linezolid,8
same,FICI,A. baumannii R674 [3]; antibiotic Minocycline,<0.129
same,MIC of antibiotic in presence of adjuvant,A. baumannii R674 [3]; antibiotic Minocycline,1 µg/mL
same,Potentiation factor,A. baumannii R674 [3]; antibiotic Minocycline,8
same,FICI,A. baumannii R674 [3]; antibiotic Rifampicin,<0.017
same,MIC of antibiotic in presence of adjuvant,A. baumannii R674 [3]; antibiotic Rifampicin,<0.125 µg/mL
same,Potentiation factor,A. baumannii R674 [3]; antibiotic Rifampicin,>512
same,MIC of antibiotic in presence of adjuvant,A. baumannii R674 [3]; antibiotic Streptomycin,No potentiation
same,FICI,A. baumannii R674 [3]; antibiotic Tetracycline,<0.25
same,MIC of antibiotic in presence of adjuvant,A. baumannii R674 [3]; antibiotic Tetracycline,16 µg/mL
same,Potentiation factor,A. baumannii R674 [3]; antibiotic Tetracycline,8
same,FICI,A. baumannii R674 [3]; antibiotic Vancomycin,<0.3125
same,MIC of antibiotic in presence of adjuvant,A. baumannii R674 [3]; antibiotic Vancomycin,16 µg/mL
same,Potentiation factor,A. baumannii R674 [3]; antibiotic Vancomycin,4
same,FICI,E. coli R3336 [4]; antibiotic Fusidic acid,<0.0625
same,MIC of antibiotic in presence of adjuvant,E. coli R3336 [4]; antibiotic Fusidic acid,16 µg/mL
same,Potentiation factor,E. coli R3336 [4]; antibiotic Fusidic acid,>32
same,MIC of antibiotic in presence of adjuvant,E. coli R3336 [4]; antibiotic Linezolid,No potentiation
same,FICI,E. coli R3336 [4]; antibiotic Minocycline,<0.0156
same,MIC of antibiotic in presence of adjuvant,E. coli R3336 [4]; antibiotic Minocycline,<0.25 µg/mL
same,Potentiation factor,E. coli R3336 [4]; antibiotic Minocycline,>128
same,FICI,E. coli R3336 [4]; antibiotic Rifampicin,<0.047
same,MIC of antibiotic in presence of adjuvant,E. coli R3336 [4]; antibiotic Rifampicin,4 µg/mL
same,Potentiation factor,E. coli R3336 [4]; antibiotic Rifampicin,128
same,MIC,P. aeruginosa R590 [5],> 512 µg/mL
same,MIC,K. pneumoniae R3934 [6],> 512 µg/mL
same,MIC,A. baumannii R674 [7],> 512 µg/mL
same,MIC,E. coli R3336 [8],> 512 µg/mL
